# From patent publication US7189714B2, “N-type calcium channel antagonists for the treatment of pain” (Astrazeneca AB, priority 2000, dated 2007)
# Target: N-type calcium channel (Homo sapiens, UniProt Q00975)
# Experiment: N-channel FLIPR assay (inhibition of K+-evoked calcium flux in differentiated IMR32 cells)
# Assay type: cell-based
# Settings: 80 mM K+ stimulus
# Sequence of N-type calcium channel (Q00975 whole entry): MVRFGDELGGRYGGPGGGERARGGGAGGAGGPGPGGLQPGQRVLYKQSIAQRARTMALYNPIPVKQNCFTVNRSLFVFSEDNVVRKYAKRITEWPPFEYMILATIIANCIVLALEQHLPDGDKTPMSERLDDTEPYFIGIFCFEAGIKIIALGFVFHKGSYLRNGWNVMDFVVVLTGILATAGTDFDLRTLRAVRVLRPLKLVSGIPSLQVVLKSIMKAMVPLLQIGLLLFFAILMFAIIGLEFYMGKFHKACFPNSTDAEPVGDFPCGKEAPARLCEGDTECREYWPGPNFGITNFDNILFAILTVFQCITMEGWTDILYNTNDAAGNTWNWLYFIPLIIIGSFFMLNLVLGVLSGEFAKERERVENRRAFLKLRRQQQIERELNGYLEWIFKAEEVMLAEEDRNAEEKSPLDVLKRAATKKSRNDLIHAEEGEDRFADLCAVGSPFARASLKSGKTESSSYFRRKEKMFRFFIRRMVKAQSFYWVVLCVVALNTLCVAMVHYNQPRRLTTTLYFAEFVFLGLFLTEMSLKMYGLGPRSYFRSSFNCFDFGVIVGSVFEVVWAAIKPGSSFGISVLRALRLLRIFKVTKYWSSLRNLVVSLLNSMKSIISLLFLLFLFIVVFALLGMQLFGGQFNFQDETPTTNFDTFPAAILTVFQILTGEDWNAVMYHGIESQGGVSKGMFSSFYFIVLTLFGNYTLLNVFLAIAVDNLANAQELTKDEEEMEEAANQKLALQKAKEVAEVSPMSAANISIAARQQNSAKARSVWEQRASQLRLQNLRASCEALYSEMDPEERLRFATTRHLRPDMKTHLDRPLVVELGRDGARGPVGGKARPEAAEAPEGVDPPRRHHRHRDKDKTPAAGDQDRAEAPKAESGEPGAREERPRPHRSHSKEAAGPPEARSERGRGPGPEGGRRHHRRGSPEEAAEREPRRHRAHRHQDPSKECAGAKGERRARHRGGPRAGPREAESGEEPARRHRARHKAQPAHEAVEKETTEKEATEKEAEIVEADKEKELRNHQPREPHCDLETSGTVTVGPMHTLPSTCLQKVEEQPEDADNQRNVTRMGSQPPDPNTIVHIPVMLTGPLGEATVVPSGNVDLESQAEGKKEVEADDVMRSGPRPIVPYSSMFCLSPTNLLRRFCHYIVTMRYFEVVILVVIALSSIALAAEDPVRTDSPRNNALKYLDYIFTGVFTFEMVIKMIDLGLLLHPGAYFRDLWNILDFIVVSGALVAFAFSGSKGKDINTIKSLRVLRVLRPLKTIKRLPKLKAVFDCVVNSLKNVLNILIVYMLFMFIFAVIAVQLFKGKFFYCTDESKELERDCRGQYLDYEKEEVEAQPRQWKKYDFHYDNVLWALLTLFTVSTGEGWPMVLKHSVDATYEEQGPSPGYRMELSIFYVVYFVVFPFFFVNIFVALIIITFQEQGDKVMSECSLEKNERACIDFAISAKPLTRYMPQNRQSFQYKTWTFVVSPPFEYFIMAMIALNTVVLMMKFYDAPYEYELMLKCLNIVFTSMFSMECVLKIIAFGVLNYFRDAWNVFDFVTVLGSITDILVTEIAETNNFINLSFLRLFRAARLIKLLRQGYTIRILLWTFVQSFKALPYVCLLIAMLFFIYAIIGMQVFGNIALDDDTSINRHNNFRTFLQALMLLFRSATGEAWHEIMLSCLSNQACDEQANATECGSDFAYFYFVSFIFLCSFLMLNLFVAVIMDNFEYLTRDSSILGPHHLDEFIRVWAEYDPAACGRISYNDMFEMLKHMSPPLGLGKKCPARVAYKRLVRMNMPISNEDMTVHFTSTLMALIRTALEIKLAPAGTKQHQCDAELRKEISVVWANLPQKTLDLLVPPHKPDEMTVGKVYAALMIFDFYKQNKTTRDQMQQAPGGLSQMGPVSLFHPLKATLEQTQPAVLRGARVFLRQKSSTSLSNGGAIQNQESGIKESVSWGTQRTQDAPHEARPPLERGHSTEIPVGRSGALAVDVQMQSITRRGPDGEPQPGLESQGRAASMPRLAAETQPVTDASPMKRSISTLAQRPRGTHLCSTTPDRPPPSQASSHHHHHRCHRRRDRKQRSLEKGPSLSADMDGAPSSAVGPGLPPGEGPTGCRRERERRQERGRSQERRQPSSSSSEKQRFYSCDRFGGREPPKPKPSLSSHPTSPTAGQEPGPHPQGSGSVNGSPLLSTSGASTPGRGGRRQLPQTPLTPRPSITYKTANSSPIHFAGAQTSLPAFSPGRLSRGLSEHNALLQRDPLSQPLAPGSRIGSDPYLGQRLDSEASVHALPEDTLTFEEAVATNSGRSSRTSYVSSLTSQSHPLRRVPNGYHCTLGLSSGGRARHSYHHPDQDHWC
# Sequence of N-type calcium channel (P54289 25-1103 partner): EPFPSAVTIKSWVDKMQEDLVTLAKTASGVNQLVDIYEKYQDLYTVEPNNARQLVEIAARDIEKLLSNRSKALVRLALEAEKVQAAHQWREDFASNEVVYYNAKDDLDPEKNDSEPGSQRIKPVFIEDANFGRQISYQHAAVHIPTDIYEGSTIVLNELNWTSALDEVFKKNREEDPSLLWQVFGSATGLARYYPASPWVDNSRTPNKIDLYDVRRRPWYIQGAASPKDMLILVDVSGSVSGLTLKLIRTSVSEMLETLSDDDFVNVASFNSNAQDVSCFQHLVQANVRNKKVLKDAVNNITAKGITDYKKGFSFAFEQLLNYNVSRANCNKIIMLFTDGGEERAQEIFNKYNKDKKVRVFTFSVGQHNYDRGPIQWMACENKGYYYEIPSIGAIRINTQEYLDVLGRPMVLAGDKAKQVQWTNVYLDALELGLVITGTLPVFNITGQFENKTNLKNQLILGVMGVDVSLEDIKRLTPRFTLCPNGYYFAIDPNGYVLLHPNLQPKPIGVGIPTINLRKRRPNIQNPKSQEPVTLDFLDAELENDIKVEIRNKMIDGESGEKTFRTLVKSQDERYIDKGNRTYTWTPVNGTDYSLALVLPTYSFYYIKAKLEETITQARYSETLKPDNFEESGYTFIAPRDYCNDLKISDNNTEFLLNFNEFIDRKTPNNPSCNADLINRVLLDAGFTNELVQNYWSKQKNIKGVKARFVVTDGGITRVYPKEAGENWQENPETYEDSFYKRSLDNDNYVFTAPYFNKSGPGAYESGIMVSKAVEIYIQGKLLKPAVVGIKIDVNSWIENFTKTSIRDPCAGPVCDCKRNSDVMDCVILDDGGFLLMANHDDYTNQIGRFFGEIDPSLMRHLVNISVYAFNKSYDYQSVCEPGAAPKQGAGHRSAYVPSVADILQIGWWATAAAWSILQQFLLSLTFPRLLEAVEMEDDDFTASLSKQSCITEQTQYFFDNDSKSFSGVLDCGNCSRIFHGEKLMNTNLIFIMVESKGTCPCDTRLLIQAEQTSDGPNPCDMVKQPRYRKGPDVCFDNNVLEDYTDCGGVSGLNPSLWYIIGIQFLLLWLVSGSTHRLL
# Sequence of N-type calcium channel (P54284 whole entry partner): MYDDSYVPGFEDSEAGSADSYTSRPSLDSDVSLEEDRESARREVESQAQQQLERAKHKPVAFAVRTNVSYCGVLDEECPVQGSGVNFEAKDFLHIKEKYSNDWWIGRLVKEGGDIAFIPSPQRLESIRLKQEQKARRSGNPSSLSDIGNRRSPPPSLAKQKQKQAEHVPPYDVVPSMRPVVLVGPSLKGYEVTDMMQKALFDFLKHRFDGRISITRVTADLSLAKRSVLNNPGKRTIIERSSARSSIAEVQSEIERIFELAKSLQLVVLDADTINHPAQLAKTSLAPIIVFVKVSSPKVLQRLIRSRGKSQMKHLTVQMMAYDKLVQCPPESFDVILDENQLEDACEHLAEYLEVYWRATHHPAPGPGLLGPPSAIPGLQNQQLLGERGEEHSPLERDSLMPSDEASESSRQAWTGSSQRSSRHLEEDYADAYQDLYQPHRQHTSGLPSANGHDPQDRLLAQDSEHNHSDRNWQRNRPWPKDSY
row,Compound,IC50 [µM]
1,"COc1ccc(-c2cc(N)c3cc(N)ccc3n2)cc1 [Example 11, 2-(4-Methoxyphenyl)-quinoline-4,6-diamine]",6.91
2,"Nc1ccc2nc(-c3ccc(Cl)cc3)cc(N)c2c1 [Example 1, 2-(4-Chlorophenyl)-quinoline-4,6-diamine]",36.3
3,"CN(C)c1cc(-c2cccc(F)c2)nc2ccc(NC3CC3)cc12 [Example 29, 2-(3 -Fluorophenyl)-N4,N4-dimethyl-N6-cyclopropyl-quinoline-4,6-diamine]",5.44
4,"CN(C)c1cc(-c2cccc(F)c2)nc2ccc(N)cc12 [Example 27, 2-(3-Fluorophenyl)-N4,N4-dimethyl-quinoline-4,6-diamine]",5.55
5,"2-(3-Fluorophenyl)-N4-morpholin-4-yl-N6-cyclopropyl-quinoline-4,6-diamine [Example 32]",6.46
6,"CN(C)c1cc(-c2cccc(F)c2)nc2ccc(NCC3CC3)cc12 [Example 49, 2-(3-Fluorophenyl)-N4,N4-dimethyl-N6-cyclopropylmethyl-quinoline-4,6-diamine]",5.88
7,"Cc1c(Nc2ccc3nc(-c4cccc(F)c4)cc(N(C)C)c3c2)c(=O)n(-c2ccccc2)n1C [Example 44, 2-(3-Fluorophenyl)-N4,N4-dimethyl-N6-4-(1,5-dimethyl-2phenyl-1,2-dihydro-pyrazol-3-one)quinoline-4,6-diamine]",5.39
8,"CN(C)c1cc(-c2cccc(N3CCOCC3)c2)nc2ccc(N)cc12 [Example 56, 2-(3-Morpholin-4-ylphenyl)-N4,N4-dimethyl-quinoline-4,6-diamine]",6.38
9,"Nc1ccc2nc(-c3ccc(C4CCCCC4)cc3)cc(N)c2c1 [Example 19, 2-(4-Cyclohexylphenyl)-quinoline-4,6-diamine]",7.96
10,"CN(C)c1cc(-c2cccc(Cl)c2)nc2ccc(NC3CC3)cc12 [Example 53, 2-(3-Chlorophenyl)-N4,N4-dimethyl-N6-cyclopropyl-quinoline-4,6-diamine]",7.19
11,"Nc1ccc2nc(-c3ccccc3F)cc(N)c2c1 [Example 16, 2-(2-Fluorophenyl)-quinoline-4,6-diamine]",81.6
12,"COc1ccccc1-c1cc(N)c2cc(N)ccc2n1 [Example 13, 2-(2-Methoxyphenyl)-quinoline-4,6-diamine]",10.5
13,"CN(C)c1cc(-c2cccc(F)c2)nc2ccc(NC3CCC3)cc12 [Example 48, 2-(3-Fluorophenyl)-N4,N4-dimethyl-N6-cyclobutyl-quinoline-4,6-diamine]",7.74
14,"CN(C)c1cc(-c2cccc(F)c2)nc2ccc(N3CCCC3)cc12 [Example 38, 2-(3-Fluorophenyl)-N4,N4-dimethyl-6-pyrrolidin-1-yl-quinolin-4-amine]",9.15
15,"Nc1ccc2nc(-c3ccccc3)cc(N)c2c1 [Example 3, 2-Phenyl-quinoline-4,6-diamine]",17.2
16,"CN(C)c1cc(-c2cccc(F)c2)nc2ccc(NC3CCCC3)cc12 [Example 50, 2-(3-Fluorophenyl)-N4,N4-dimethyl-N6-cyclopentyl-quinoline-4,6-diamine]",5.9
17,"Nc1ccc2nc(-c3cccc(C(F)(F)F)c3)cc(N)c2c1 [Example 5, 2-(3-Trifluoromethylphenyl)-quinoline-4,6-diamine]",5.83
18,"CN(C)c1cc(-c2ccccc2)nc2ccc(N)cc12 [Example 6, 2-Phenyl-N4,N4-dimethyl-quinoline-4,6-diamine]",6.11

# The next lines start with the values.
row,IC50 [µM],Compound
1,4.9,"CN(C)c1ccc2nc(-c3cccc(F)c3)cc(N(C)C)c2c1 [Example 26, 2-(3-Fluorophenyl)-N4,N4,N6,N6-tetramethyl-quinoline-4,6-diamine]"
2,4.83,"Nc1ccc2nc(-c3cccc(Cl)c3)cc(N)c2c1 [Example 25, 2-(3-Chlorophenyl)-quinoline-4,6-diamine]"
3,4.53,"CNc1cc(-c2cccc(F)c2)nc2ccc(N)cc12 [Example 39, 2-(3-Fluorophenyl)-N4-methyl-quinoline-4,6-diamine]"
4,4.13,"Nc1ccc2nc(-c3ccccc3Cl)cc(N)c2c1 [Example 15, 2-(2-Chlorophenyl)-quinoline-4,6-diamine]"
5,3.81,"CNc1ccc2nc(-c3cccc(F)c3)cc(N(C)C)c2c1 [Example 28, 2-(3-Fluorophenyl)-N4,N4,N6-trimethyl-quinoline-4,6-diamine]"
6,3.81,"Nc1ccc2nc(-c3cccc(F)c3)cc(N)c2c1 [Example 10, 2-(3-Fluorophenyl)-quinoline-4,6-diamine]"
7,3.78,"C=CCNc1ccc2nc(-c3cccc(F)c3)cc(N(C)C)c2c1 [Example 51, 2-(3-Fluorophenyl)-N4,N4-dimethyl-N6-allyl-quinoline-4,6-diamine]"
8,3.54,"Nc1ccc2nc(-c3ccccc3)cc(NCc3ccccc3)c2c1 [Example 4, 2-Phenyl-N4-benzyl-quinoline-4,6-diamine]"
9,3.51,"CNc1ccc2nc(-c3ccccc3F)cc(N)c2c1 [Example 23, 2-(2-Fluorophenyl)-N6-methyl-quinoline-4,6-diamine]"
10,3.18,"Nc1ccc2nc(-c3ccc(Br)cc3)cc(N)c2c1 [Example 20, 2-(4-Bromophenyl)-quinoline-4,6-diamine]"
11,2.98,"CN(C)c1cc(-c2cccc(F)c2)nc2ccc(Nc3cccc(N)n3)cc12 [Example 40, 2-(3-Fluorophenyl)-N4,N4-dimethyl-N6-(6-amino-pyridin-2-yl)-quinoline-4,6-diamine]"
12,2.82,"CC(C)Nc1ccc2nc(-c3cccc(F)c3)cc(N(C)C)c2c1 [Example 33, 2-(3-Fluorophenyl)-N4,N4-dimethyl-N6-isopropyl-quinoline-4,6-diamine]"
13,2.71,"COc1cccc(-c2cc(N)c3cc(N)ccc3n2)c1 [Example 9, 2-(3-Methoxyphenyl)-quinoline-4,6-diamine]"
14,2.68,"CNc1ccc2nc(-c3cccc(F)c3)cc(N)c2c1 [Example 24, 2-(3-Fluorophenyl)-N6-methyl-quinoline-4,6-diamine]"
15,2.59,"Nc1ccc2nc(COc3ccccc3)cc(N)c2c1 [Example 14, 2-Phenoxymethyl-quinoline-4,6-diamine]"
16,2.54,"Nc1ccc2nc(-c3cccc(Br)c3)cc(N)c2c1 [Example 21, 2-(3-Bromophenyl)-quinoline-4,6-diamine]"
17,2.31,"CN(C)c1cc(-c2cccc(N3CCOCC3)c2)nc2ccc(NC3CC3)cc12 [Example 55, 2-(3-Morpholin-4-ylphenyl)-N4,N4-dimethyl-N6-cyclopropyl-quinoline-4,6-diamine]"
18,2.18,"CNc1ccc2nc(-c3cccc(F)c3)cc(NC)c2c1 [Example 37, 2-(3-Fluorophenyl)-N4,N6-dimethyl-quinoline-4,6-diamine]"
19,1.99,"CCCNc1cc(-c2ccccc2)nc2ccc(N)cc12 [Example 7, 2-Phenyl-N4-propyl-quinoline-4,6-diamine]"
20,1.89,"CCCCCc1cc(N)c2cc(N)ccc2n1 [Example 12, 2-Pentyl-quinoline-4,6-diamine]"
21,1.8,"CNc1cc(-c2cccc(F)c2)nc2ccc(NC3CC3)cc12 [Example 41, 2-(3-Fluorophenyl)-N4-methyl-N6-cyclopropyl-quinoline-4,6-diamine]"
22,1.75,"COCCNc1cc(-c2cccc(F)c2)nc2ccc(NC3CC3)cc12 [Example 54, 2-(3-Fluorophenyl)-N4-(2-methoxy-ethyl)-N6-cyclopropyl-quinoline-4,6-diamine]"

# System: L-type calcium channel
# Experiment: L-channel FLIPR assay (SK-N-SH cells)
# Assay type: cell-based, human
# Settings: L-channel reference on each plate, near IC50; read-out: reference concentration near IC50
row,IC50 [µM],Compound
1,~0.03,CCOC(=O)C1=C(C)NC(C)=C(C(=O)OC)C1c1cccc([N+](=O)[O-])c1 (centres unmarked) [nitrendipine]
